Experimental data as given in PMC8501045, “Addressing MRSA infection and antibacterial resistance with peptoid polymers” (Nature Communications, 2021).

Columns and labels:
Type in all cases: in vivo
S. epidermidis 9397 [1] = assay: Mouse peritonitis model, survival test, S. epidermidis; conditions: i.p. 20 mg/kg, 7 days
Experimental: This infection model was conducted according to the previously reported method with slight modification. Female ICR mice (21–24 g) were used for MRSA-infected peritonitis model. Mice were infected by intraperitoneal administration of 0.2 mL of S. aureus USA300 LAC in saline (7.5 × 10^8 CFU/mL) supplemented with 5% mucin. […] Once the infected mice died, peritoneal lavage was performed by injecting 3.0 mL of saline into the peritoneal cavity and massaging the abdomen. Subsequently, the abdomen was opened and peritoneal fluid was recovered from the abdominal cavity for analysis. Blood samples were collected through cardiac puncture for analysis of CFU/mL. Then, different organs including the heart, liver, spleen, lung, and kidney were removed and homogenized in 0.1% TX-100 solution. The homogenate was serially diluted for plating on LB agar. After incubation at 37 °C for 14 h, the number of colonies on the plate was counted to calculate the bacteria burden. Surviving mice were euthanized at 48 h after infection. The blood, peritoneal fluid, and organs were collected for the determination of bacterial colonies. […] For the pretreatment group, mice were sacrificed and tissues were harvested to determine the CFU at 1 h post infection. […]

S. aureus USA300 LAC = assay: Mouse peritonitis model, CFU in organs, blood and IP fluid, MRSA; conditions: Figure 6d
Experimental: (§1) This infection model was conducted according to the previously reported method with slight modification. Female ICR mice (21–24 g) were used for MRSA-infected peritonitis model. Mice were infected by intraperitoneal administration of 0.2 mL of S. aureus USA300 LAC in saline (7.5 × 10^8 CFU/mL) supplemented with 5% mucin. […] Once the infected mice died, peritoneal lavage was performed by injecting 3.0 mL of saline into the peritoneal cavity and massaging the abdomen. Subsequently, the abdomen was opened and peritoneal fluid was recovered from the abdominal cavity for analysis. Blood samples were collected through cardiac puncture for analysis of CFU/mL. Then, different organs including the heart, liver, spleen, lung, and kidney were removed and homogenized in 0.1% TX-100 solution. The homogenate was serially diluted for plating on LB agar. After incubation at 37 °C for 14 h, the number of colonies on the plate was counted to calculate the bacteria burden. Surviving mice were euthanized at 48 h after infection. The blood, peritoneal fluid, and organs were collected for the determination of bacterial colonies. […] For the pretreatment group, mice were sacrificed and tissues were harvested to determine the CFU at 1 h post infection.

S. epidermidis 9397 [2] = assay: Mouse peritonitis model, CFU in organs, blood and IP fluid, S. epidermidis; conditions: Figure 6e
Experimental: as §1
For experiments of S. epidermidis and S. haemolyticus infections, female ICR mice (22–24 g) were rendered neutropenic by treatment with 150 and 100 mg/kg of cyclophosphamide intraperitoneally at 4 days and 1 day prior to infection. Mice were infected by intraperitoneal administration of 0.2 mL of S. epidermidis 9397 (5.1 × 10^9 CFU/mL) or S. haemolyticus 0202 (2.6 × 10^9 CFU/mL) in saline. Other experiment conditions were similar to those in MRSA peritonitis model.

CN[C@H](CC(C)C)C(=O)N[C@H]1C(=O)N[C@@H](CC(N)=O)C(=O)N[C@H]2C(=O)N[C@H]3C(=O)N[C@H](C(=O)N[C@H](C(=O)O)c4cc(O)cc(O)c4-c4cc3ccc4O)[C@H](O)c3ccc(c(Cl)c3)Oc3cc2cc(c3O[C@@H]2O[C@H](CO)[C@@H](O)[C@H](O)[C@H]2O[C@H]2C[C@](C)(N)[C@H](O)[C@H](C)O2)Oc2ccc(cc2Cl)[C@H]1O [Vancomycin]
mice survived (S. epidermidis 9397 [1]): 4/6
Log10(CFU/mL IP fluid) (S. aureus USA300 LAC; individual mouse 1 of 6): 3.724 Log10(CFU/mL)
Log10(CFU/mL IP fluid) (S. aureus USA300 LAC; individual mouse 2 of 6): 3.912 Log10(CFU/mL)
Log10(CFU/mL IP fluid) (S. aureus USA300 LAC; individual mouse 3 of 6): 2.845 Log10(CFU/mL)
Log10(CFU/mL IP fluid) (S. aureus USA300 LAC; individual mouse 4 of 6): 3.255 Log10(CFU/mL)
Log10(CFU/mL IP fluid) (S. aureus USA300 LAC; individual mouse 5 of 6): 3.595 Log10(CFU/mL)
Log10(CFU/mL IP fluid) (S. aureus USA300 LAC; individual mouse 6 of 6): 1.824 Log10(CFU/mL)
Log10(CFU/mL Blood) (S. aureus USA300 LAC; individual mouse 1 of 6): 1.824 Log10(CFU/mL)
Log10(CFU/mL Blood) (S. aureus USA300 LAC; individual mouse 2 of 6): 3.213 Log10(CFU/mL)
Log10(CFU/mL Blood) (S. aureus USA300 LAC; individual mouse 3 of 6): 3.885 Log10(CFU/mL)
Log10(CFU/mL Blood) (S. aureus USA300 LAC; individual mouse 4 of 6): 1.523 Log10(CFU/mL)
Log10(CFU/mL Blood) (S. aureus USA300 LAC; individual mouse 5 of 6): 2.222 Log10(CFU/mL)
Log10(CFU/mL Blood) (S. aureus USA300 LAC; individual mouse 6 of 6): 0 Log10(CFU/mL)
Log10(CFU/g Heart) (S. aureus USA300 LAC; individual mouse 1 of 6): 0 Log10(CFU/g)
Log10(CFU/g Heart) (S. aureus USA300 LAC; individual mouse 2 of 6): 2.523 Log10(CFU/g)
Log10(CFU/g Heart) (S. aureus USA300 LAC; individual mouse 3 of 6): 2.824 Log10(CFU/g)
Log10(CFU/g Heart) (S. aureus USA300 LAC; individual mouse 4 of 6): 2.824 Log10(CFU/g)
Log10(CFU/g Heart) (S. aureus USA300 LAC; individual mouse 5 of 6): 3 Log10(CFU/g)
Log10(CFU/g Heart) (S. aureus USA300 LAC; individual mouse 6 of 6): 0 Log10(CFU/g)
Log10(CFU/g Kidney) (S. aureus USA300 LAC; individual mouse 1 of 6): 3.222 Log10(CFU/g)
Log10(CFU/g Kidney) (S. aureus USA300 LAC; individual mouse 2 of 6): 4.951 Log10(CFU/g)
Log10(CFU/g Kidney) (S. aureus USA300 LAC; individual mouse 3 of 6): 4.845 Log10(CFU/g)
Log10(CFU/g Kidney) (S. aureus USA300 LAC; individual mouse 4 of 6): 2.824 Log10(CFU/g)
Log10(CFU/g Kidney) (S. aureus USA300 LAC; individual mouse 5 of 6): 2.523 Log10(CFU/g)
Log10(CFU/g Kidney) (S. aureus USA300 LAC; individual mouse 6 of 6): 4.247 Log10(CFU/g)
Log10(CFU/g Liver) (S. aureus USA300 LAC; individual mouse 1 of 6): 3.125 Log10(CFU/g)
Log10(CFU/g Liver) (S. aureus USA300 LAC; individual mouse 2 of 6): 4.501 Log10(CFU/g)
Log10(CFU/g Liver) (S. aureus USA300 LAC; individual mouse 3 of 6): 3.477 Log10(CFU/g)
Log10(CFU/g Liver) (S. aureus USA300 LAC; individual mouse 4 of 6): 4.398 Log10(CFU/g)
Log10(CFU/g Liver) (S. aureus USA300 LAC; individual mouse 5 of 6): 3.699 Log10(CFU/g)
Log10(CFU/g Liver) (S. aureus USA300 LAC; individual mouse 6 of 6): 3.699 Log10(CFU/g)
Log10(CFU/g Lung) (S. aureus USA300 LAC; individual mouse 2 of 6): 4.23 Log10(CFU/g)
Log10(CFU/g Lung) (S. aureus USA300 LAC; individual mouse 3 of 6): 3.125 Log10(CFU/g)
Log10(CFU/g Lung) (S. aureus USA300 LAC; individual mouse 5 of 6): 3 Log10(CFU/g)
Log10(CFU/g Lung) (S. aureus USA300 LAC; individual mouse 6 of 6): 3 Log10(CFU/g)
Log10(CFU/g Spleen) (S. aureus USA300 LAC; individual mouse 1 of 6): 3.426 Log10(CFU/g)
Log10(CFU/g Spleen) (S. aureus USA300 LAC; individual mouse 2 of 6): 4.689 Log10(CFU/g)
Log10(CFU/g Spleen) (S. aureus USA300 LAC; individual mouse 3 of 6): 3.885 Log10(CFU/g)
Log10(CFU/g Spleen) (S. aureus USA300 LAC; individual mouse 4 of 6): 4.404 Log10(CFU/g)
Log10(CFU/g Spleen) (S. aureus USA300 LAC; individual mouse 5 of 6): 4.222 Log10(CFU/g)
Log10(CFU/g Spleen) (S. aureus USA300 LAC; individual mouse 6 of 6): 4.204 Log10(CFU/g)
Log10(CFU/mL IP fluid) (S. epidermidis 9397 [2]; individual mouse 1 of 6): 6.824 Log10(CFU/mL)
Log10(CFU/mL IP fluid) (S. epidermidis 9397 [2]; individual mouse 2 of 6): 5.982 Log10(CFU/mL)
Log10(CFU/mL IP fluid) (S. epidermidis 9397 [2]; individual mouse 3 of 6): 4.068 Log10(CFU/mL)
Log10(CFU/mL IP fluid) (S. epidermidis 9397 [2]; individual mouse 4 of 6): 3.222 Log10(CFU/mL)
Log10(CFU/mL IP fluid) (S. epidermidis 9397 [2]; individual mouse 5 of 6): 3.067 Log10(CFU/mL)
Log10(CFU/mL IP fluid) (S. epidermidis 9397 [2]; individual mouse 6 of 6): 4.206 Log10(CFU/mL)
Log10(CFU/mL Blood) (S. epidermidis 9397 [2]; individual mouse 1 of 6): 4.311 Log10(CFU/mL)
Log10(CFU/mL Blood) (S. epidermidis 9397 [2]; individual mouse 2 of 6): 4.38 Log10(CFU/mL)
Log10(CFU/mL Blood) (S. epidermidis 9397 [2]; individual mouse 3 of 6): 2.602 Log10(CFU/mL)
Log10(CFU/mL Blood) (S. epidermidis 9397 [2]; individual mouse 4 of 6): 2.824 Log10(CFU/mL)
Log10(CFU/mL Blood) (S. epidermidis 9397 [2]; individual mouse 5 of 6): 0 Log10(CFU/mL)
Log10(CFU/mL Blood) (S. epidermidis 9397 [2]; individual mouse 6 of 6): 2.301 Log10(CFU/mL)
Log10(CFU/g Heart) (S. epidermidis 9397 [2]; individual mouse 1 of 6): 5.45 Log10(CFU/g)
Log10(CFU/g Heart) (S. epidermidis 9397 [2]; individual mouse 2 of 6): 5.747 Log10(CFU/g)
Log10(CFU/g Heart) (S. epidermidis 9397 [2]; individual mouse 3 of 6): 5.222 Log10(CFU/g)
Log10(CFU/g Heart) (S. epidermidis 9397 [2]; individual mouse 4 of 6): 5.315 Log10(CFU/g)
Log10(CFU/g Heart) (S. epidermidis 9397 [2]; individual mouse 5 of 6): 4.186 Log10(CFU/g)
Log10(CFU/g Heart) (S. epidermidis 9397 [2]; individual mouse 6 of 6): 4.735 Log10(CFU/g)
Log10(CFU/g Kidney) (S. epidermidis 9397 [2]; individual mouse 1 of 6): 6.633 Log10(CFU/g)
Log10(CFU/g Kidney) (S. epidermidis 9397 [2]; individual mouse 2 of 6): 6.452 Log10(CFU/g)
Log10(CFU/g Kidney) (S. epidermidis 9397 [2]; individual mouse 3 of 6): 4.81 Log10(CFU/g)
Log10(CFU/g Kidney) (S. epidermidis 9397 [2]; individual mouse 4 of 6): 4.699 Log10(CFU/g)
Log10(CFU/g Kidney) (S. epidermidis 9397 [2]; individual mouse 5 of 6): 4.119 Log10(CFU/g)
Log10(CFU/g Kidney) (S. epidermidis 9397 [2]; individual mouse 6 of 6): 4.752 Log10(CFU/g)
Log10(CFU/g Liver) (S. epidermidis 9397 [2]; individual mouse 1 of 6): 7.125 Log10(CFU/g)
Log10(CFU/g Liver) (S. epidermidis 9397 [2]; individual mouse 2 of 6): 7.288 Log10(CFU/g)
Log10(CFU/g Liver) (S. epidermidis 9397 [2]; individual mouse 3 of 6): 4.887 Log10(CFU/g)
Log10(CFU/g Liver) (S. epidermidis 9397 [2]; individual mouse 4 of 6): 4.845 Log10(CFU/g)
Log10(CFU/g Liver) (S. epidermidis 9397 [2]; individual mouse 5 of 6): 3.985 Log10(CFU/g)
Log10(CFU/g Liver) (S. epidermidis 9397 [2]; individual mouse 6 of 6): 5.176 Log10(CFU/g)
Log10(CFU/g Lung) (S. epidermidis 9397 [2]; individual mouse 1 of 6): 6.477 Log10(CFU/g)
Log10(CFU/g Lung) (S. epidermidis 9397 [2]; individual mouse 2 of 6): 5.954 Log10(CFU/g)
Log10(CFU/g Lung) (S. epidermidis 9397 [2]; individual mouse 3 of 6): 6.211 Log10(CFU/g)
Log10(CFU/g Lung) (S. epidermidis 9397 [2]; individual mouse 4 of 6): 5.171 Log10(CFU/g)
Log10(CFU/g Lung) (S. epidermidis 9397 [2]; individual mouse 5 of 6): 3.564 Log10(CFU/g)
Log10(CFU/g Lung) (S. epidermidis 9397 [2]; individual mouse 6 of 6): 4.434 Log10(CFU/g)
Log10(CFU/g Spleen) (S. epidermidis 9397 [2]; individual mouse 1 of 6): 7.954 Log10(CFU/g)
Log10(CFU/g Spleen) (S. epidermidis 9397 [2]; individual mouse 2 of 6): 7.349 Log10(CFU/g)
Log10(CFU/g Spleen) (S. epidermidis 9397 [2]; individual mouse 3 of 6): 7.368 Log10(CFU/g)
Log10(CFU/g Spleen) (S. epidermidis 9397 [2]; individual mouse 4 of 6): 5.666 Log10(CFU/g)
Log10(CFU/g Spleen) (S. epidermidis 9397 [2]; individual mouse 5 of 6): 5.977 Log10(CFU/g)
Log10(CFU/g Spleen) (S. epidermidis 9397 [2]; individual mouse 6 of 6): 6.041 Log10(CFU/g)
